Test results as given in the supplement of paper PMC10307832.

Experiments:
Test in all cases: relative viability (nuclei count vs DMSO), 5 days (fraction); higher = more cells survive
[1] = compound: C1CNCCC1C2=CC(=NN2)C3=CC=NC=C3 + COc1cc2c(Oc3ccc(NC(=O)C4(C(=O)Nc5ccc(F)cc5)CC4)cc3F)ccnc2cc1OCCCN1CCOCC1 [Foretinib] (partner 0.25 µM)
How it was run: (§1)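 A single step with final 0.05% Triton X-100, 1% formaldehyde and 1 ug/ml Hoechst fixed the cells and stained nuclei 5 days after treatment. Lung cancer cell lines in 1536-well plates had been treated by pin tool the day after seeding with one drug alone or a fixed anchor-drug dose plus five library-drug doses (not always all listed) in √10 steps, and nuclei were counted on 4× images. Relative viability is the ratio of nuclei in treated wells to nuclei in vehicle wells, taken as the median of duplicate plates.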

[2] = compound: C[C@@H](N)c1ccc(C(=O)Nc2ccnc3[nH]ccc23)cc1 + COc1cc2c(Oc3ccc(NC(=O)C4(C(=O)Nc5ccc(F)cc5)CC4)cc3F)ccnc2cc1OCCCN1CCOCC1 [Foretinib] (partner 0.25 µM)
How it was run: as §1

Tanzisertib + AZD7762 = compound: O[C@H]1CC[C@H](Nc2ncc3nc(Nc4c(F)cc(F)cc4F)n([C@H]4CCOC4)c3n2)CC1 [Tanzisertib] + NC(=O)Nc1cc(-c2cccc(F)c2)sc1C(=O)N[C@H]1CCCNC1 [AZD7762] (partner 0.2 µM)
How it was run: as §1

[3] = compound: C[C@@H](N)c1ccc(C(=O)Nc2ccnc3[nH]ccc23)cc1 + CCNC(=O)c1noc(-c2cc(C(C)C)c(O)cc2O)c1-c1ccc(CN2CCOCC2)cc1 [Luminespib] (partner 0.01 µM)
How it was run: as §1

| Cell Line | relative viability ([1]; first compound 0.08 µM) | relative viability ([1]; first compound 0.8 µM) | relative viability ([1]; first compound 2.53 µM) | relative viability ([1]; first compound 8 µM) | relative viability ([2]; first compound 0.04 µM) | relative viability ([2]; first compound 0.1265 µM) | relative viability ([2]; first compound 0.4 µM) | relative viability ([2]; first compound 1.265 µM) | relative viability ([2]; first compound 4 µM) | relative viability (Tanzisertib + AZD7762; first compound 0.08 µM) | relative viability (Tanzisertib + AZD7762; first compound 0.253 µM) | relative viability (Tanzisertib + AZD7762; first compound 0.8 µM) | relative viability (Tanzisertib + AZD7762; first compound 2.53 µM) | relative viability (Tanzisertib + AZD7762; first compound 8 µM) | relative viability ([3]; first compound 0.04 µM) | relative viability ([3]; first compound 0.1265 µM) | relative viability ([3]; first compound 0.4 µM) | relative viability ([3]; first compound 1.265 µM) | relative viability ([3]; first compound 4 µM) |
| --- | --- | --- | --- | --- | --- | --- | --- | --- | --- | --- | --- | --- | --- | --- | --- | --- | --- | --- | --- |
| NCI-H2342 | 0.899 | 1.04 | 1.21 | 1.29 | 1.09 | 1.22 | 1.01 | 1.21 | 0.933 | 0.416 | 0.633 | 0.515 | 0.477 | 0.41 | 0.858 | 0.797 | 0.719 | 0.802 | 0.808 |
| NCI-H358 | 0.551 | 0.672 | 0.727 | 0.69 | 0.675 | 0.688 | 0.651 | 0.662 | 0.566 | 0.468 | 0.494 | 0.695 | 0.453 | 0.387 | 0.231 | 0.213 | 0.348 | 0.237 | 0.364 |
| NCI-H1734 | 0.81 | 0.919 | 0.992 | 0.836 | 0.996 | 0.95 | 0.867 | 0.855 | 0.683 | 0.596 | 0.532 | 0.558 | 0.534 | 0.526 | 0.2 | 0.209 | 0.193 | 0.187 | 0.195 |
| A-427 | 1.11 | 1.21 | 1.13 | 1.04 | 1.13 | 1 | 1.14 |  | 1.07 | 0.756 | 0.766 | 0.885 | 0.705 | 0.662 | 0.79 | 0.898 | 0.976 |  | 0.804 |
| RERF-LC-KJ | 0.871 | 0.942 | 0.837 | 0.924 | 0.899 | 0.811 | 0.9 | 0.899 | 0.909 | 0.987 | 1.02 | 0.904 | 0.93 | 0.571 | 1.22 | 1.3 | 1.26 | 1.2 | 1.25 |
| NCI-H727 | 0.805 | 0.758 | 1.13 | 0.904 | 1.07 | 1.07 | 1.36 | 1.26 | 1.24 | 0.59 | 0.652 | 0.524 | 0.544 | 0.599 | 0.341 | 0.516 | 0.425 | 0.285 | 0.363 |
| LCLC-97TM1 | 0.946 | 0.888 | 0.938 | 0.904 | 0.928 | 0.976 | 0.99 | 1.06 | 0.94 | 0.302 | 0.334 | 0.207 | 0.264 | 0.151 | 0.828 | 0.826 | 1.06 | 0.908 | 0.857 |
| BEN | 0.548 | 0.752 | 0.646 | 0.692 | 0.331 | 0.525 | 0.878 | 0.689 | 0.4 | 0.622 | 0.8 | 0.868 | 0.724 | 0.565 | 0.369 | 0.332 | 0.44 | 0.29 | 0.286 |
| LC-2-ad |  | 0.956 | 0.997 | 0.948 | 0.963 | 0.867 | 0.873 |  | 0.661 | 0.839 | 0.898 | 0.867 | 0.833 | 0.676 | 0.864 | 0.987 | 0.837 |  | 0.659 |
| ABC-1 | 1.04 | 1.1 | 1.46 | 1.35 | 1.25 | 1.12 | 1.34 |  | 0.993 | 0.914 | 0.822 | 0.871 | 0.649 | 0.611 | 1 | 0.678 | 0.529 | 0.553 | 0.811 |
| NCI-H647 | 0.922 | 1.04 | 1.27 | 1.32 | 1.22 | 1.06 | 1.25 | 1.21 | 0.895 | 0.675 | 0.549 | 0.546 | 0.534 | 0.18 | 0.133 | 0.228 | 0.139 | 0.14 | 0.0908 |
| NCI-H1755 | 0.968 |  | 0.908 | 0.897 | 0.95 | 0.96 | 0.901 | 0.903 | 0.664 | 0.462 | 0.474 | 0.441 | 0.399 | 0.384 | 0.384 | 0.426 | 0.69 | 0.397 | 0.26 |
| EPLC-272H | 0.647 | 0.674 | 0.678 | 0.706 | 0.715 | 0.747 | 0.797 | 0.768 | 0.587 | 0.352 | 0.324 | 0.175 | 0.175 | 0.176 | 0.402 | 0.602 | 0.188 | 0.491 | 0.405 |
| NCI-H1437 | 1.21 | 1.32 | 1.25 | 1.28 | 1.29 | 1.35 | 1.35 | 1.37 | 1.35 | 1.15 | 1.15 | 1.12 | 1.12 | 1.12 | 1.1 | 1.05 | 1.21 | 1.13 | 0.907 |
| EKVX | 0.902 | 0.437 | 1.5 | 0.716 | 0.84 | 0.674 | 0.888 | 0.208 | 0.727 | 0.68 | 0.795 | 0.612 | 0.65 | 0.535 | 0.943 | 0.987 | 1.08 | 0.879 | 0.942 |
| NCI-H1651 | 0.763 | 0.839 | 0.7 | 0.851 | 0.883 | 0.908 | 0.882 | 0.987 | 0.782 | 0.507 | 0.464 | 0.43 | 0.426 | 0.378 | 0.806 | 0.734 | 1.1 | 1.02 | 0.826 |
| HCC-15 | 0.899 | 1.18 | 1.07 | 1.03 | 1.21 | 1.03 | 0.966 |  | 0.975 | 1.23 | 1.25 | 1.22 | 1.13 | 1 | 0.391 | 0.329 | 0.291 |  | 0.153 |
| NCI-H1703 | 0.389 | 0.355 | 0.349 | 0.348 | 0.409 | 0.274 | 0.333 |  | 0.324 | 0.146 | 0.13 | 0.118 | 0.135 | 0.113 |  |  |  |  |  |
